In ChEMBL document CHEMBL3351521, “Benzene-1,3-dicarboxylic acid 2,5-dimethylpyrrole derivatives as multiple inhibitors of bacterial Mur ligases (MurC-MurF)” (Bioorg Med Chem, 2014):
In brackets after ≈: the same amount, converted by molar mass.

Experiments:
[1] = target: T1, UDP-N-acetylmuramoyl-tripeptide--D-alanyl-D-alanine ligase (Escherichia coli K-12, UniProt P11880); experiment: Inhibition of Escherichia coli MurF after 15 mins in presence of 0.005% Triton X-114 by Malachite green assay
T1 sequence (P11880 whole entry): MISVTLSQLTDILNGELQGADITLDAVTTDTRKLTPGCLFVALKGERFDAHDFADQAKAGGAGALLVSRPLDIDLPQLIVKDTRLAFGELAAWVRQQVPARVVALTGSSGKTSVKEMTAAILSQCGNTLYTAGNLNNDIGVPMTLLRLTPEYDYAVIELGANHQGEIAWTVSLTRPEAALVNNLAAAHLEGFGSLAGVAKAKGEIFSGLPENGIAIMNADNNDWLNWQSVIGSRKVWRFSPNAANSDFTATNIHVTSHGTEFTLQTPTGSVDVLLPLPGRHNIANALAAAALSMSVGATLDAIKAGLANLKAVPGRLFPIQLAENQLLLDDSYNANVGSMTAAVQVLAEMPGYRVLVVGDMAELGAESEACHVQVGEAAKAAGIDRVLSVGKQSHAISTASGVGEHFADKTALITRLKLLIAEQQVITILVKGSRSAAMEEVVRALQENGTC

[2] = target: T2, UDP-N-acetylmuramoyl-L-alanyl-D-glutamate--2,6-diaminopimelate ligase (Escherichia coli (strain K12), UniProt P22188); experiment: Inhibition of Escherichia coli MurE after 15 mins in presence of 0.005% Triton X-114 by Malachite green assay
T2 sequence (P22188 whole entry): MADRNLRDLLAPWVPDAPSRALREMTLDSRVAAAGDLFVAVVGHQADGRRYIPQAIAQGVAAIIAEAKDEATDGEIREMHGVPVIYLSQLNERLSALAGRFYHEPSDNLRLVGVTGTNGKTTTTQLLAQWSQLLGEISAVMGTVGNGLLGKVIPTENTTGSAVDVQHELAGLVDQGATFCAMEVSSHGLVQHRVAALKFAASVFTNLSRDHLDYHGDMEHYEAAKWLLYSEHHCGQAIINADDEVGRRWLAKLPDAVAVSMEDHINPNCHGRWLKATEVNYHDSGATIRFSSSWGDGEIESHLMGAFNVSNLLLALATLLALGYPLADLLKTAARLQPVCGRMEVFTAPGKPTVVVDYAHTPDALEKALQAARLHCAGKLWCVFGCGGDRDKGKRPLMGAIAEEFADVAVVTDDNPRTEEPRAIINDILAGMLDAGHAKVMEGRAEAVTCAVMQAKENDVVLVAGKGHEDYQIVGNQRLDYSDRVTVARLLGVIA

[3] = target: T3, UDP-N-acetylmuramoylalanine--D-glutamate ligase (Escherichia coli K-12, UniProt P14900); experiment: Inhibition of Escherichia coli MurD after 15 mins in presence of 0.005% Triton X-114 by Malachite green assay
T3 sequence (P14900 whole entry): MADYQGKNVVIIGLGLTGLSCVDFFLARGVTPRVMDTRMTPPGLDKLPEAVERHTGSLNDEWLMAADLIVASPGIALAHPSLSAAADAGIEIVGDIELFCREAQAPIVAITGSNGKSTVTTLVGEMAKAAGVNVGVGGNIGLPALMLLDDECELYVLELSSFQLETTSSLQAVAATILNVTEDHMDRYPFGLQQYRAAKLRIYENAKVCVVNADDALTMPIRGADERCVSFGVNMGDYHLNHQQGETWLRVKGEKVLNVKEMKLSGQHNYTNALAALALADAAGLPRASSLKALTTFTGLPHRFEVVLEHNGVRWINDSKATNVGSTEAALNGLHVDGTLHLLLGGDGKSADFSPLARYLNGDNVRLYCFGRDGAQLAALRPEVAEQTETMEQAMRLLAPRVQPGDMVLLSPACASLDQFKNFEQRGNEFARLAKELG

[4] = target: UDP-N-acetylmuramate--L-alanine ligase (Escherichia coli K-12, UniProt P17952); experiment: Inhibition of Escherichia coli MurC after 15 mins in presence of 0.005% Triton X-114 by Malachite green assay
Sequence of UDP-N-acetylmuramate--L-alanine ligase (P17952 whole entry): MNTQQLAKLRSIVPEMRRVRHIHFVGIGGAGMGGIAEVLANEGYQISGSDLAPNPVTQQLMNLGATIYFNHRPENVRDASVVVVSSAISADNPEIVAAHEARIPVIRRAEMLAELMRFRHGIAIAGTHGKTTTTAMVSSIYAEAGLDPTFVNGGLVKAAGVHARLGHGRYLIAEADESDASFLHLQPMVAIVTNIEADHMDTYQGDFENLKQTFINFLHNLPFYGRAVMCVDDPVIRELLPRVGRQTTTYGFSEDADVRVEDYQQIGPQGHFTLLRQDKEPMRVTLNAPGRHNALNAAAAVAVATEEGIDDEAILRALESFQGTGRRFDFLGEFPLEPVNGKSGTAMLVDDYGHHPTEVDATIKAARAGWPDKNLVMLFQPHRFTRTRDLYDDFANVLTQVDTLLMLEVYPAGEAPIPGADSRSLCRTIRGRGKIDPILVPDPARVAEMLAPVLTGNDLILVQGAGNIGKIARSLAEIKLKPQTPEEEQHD

[5] = target: T4, UDP-N-acetylmuramoyl-tripeptide--D-alanyl-D-alanine ligase (Escherichia coli K-12) (UniProt P11880); experiment: Inhibition of Escherichia coli MurF assessed as residual enzyme activity at 250 uM after 15 mins in presence of 0.005% Triton X-114 by Malachite green assay
T4 sequence (whole entry): T1 sequence (P11880 whole entry)

[6] = tested on: Enterococcus faecalis; experiment: Antimicrobial activity against Enterococcus faecalis ATCC 29212 after 16 to 20 hrs; format: functional
[7] = tested on: Haemophilus influenzae; experiment: Antimicrobial activity against Haemophilus influenzae ATCC 49766 after 20 to 24 hrs; format: functional
[8] = tested on: Staphylococcus aureus; experiment: microbe, parasite or virus in culture; conditions: ATCC 29213
Description: Antimicrobial activity against Staphylococcus aureus ATCC 29213 after 16 to 20 hrs

[9] = target: T5, UDP-N-acetylmuramoyl-L-alanyl-D-glutamate--2,6-diaminopimelate ligase (Escherichia coli (strain K12)) (UniProt P22188); experiment: Inhibition of Escherichia coli MurE assessed as residual enzyme activity at 250 uM after 15 mins in presence of 0.005% Triton X-114 by Malachite green assay
T5 sequence (whole entry): T2 sequence (P22188 whole entry)

[10] = target: T6, UDP-N-acetylmuramoylalanine--D-glutamate ligase (Escherichia coli K-12) (UniProt P14900); experiment: Inhibition of Escherichia coli MurD assessed as residual enzyme activity at 250 uM after 15 mins in presence of 0.005% Triton X-114 by Malachite green assay
T6 sequence (whole entry): T3 sequence (P14900 whole entry)

[11] = target: UDP-N-acetylmuramate--L-alanine ligase (Escherichia coli K-12) (UniProt P17952); experiment: Inhibition of Escherichia coli MurC assessed as residual enzyme activity at 250 uM after 15 mins in presence of 0.005% Triton X-114 by Malachite green assay
Sequence of UDP-N-acetylmuramate--L-alanine ligase (Escherichia coli K-12) (P17952 whole entry, looked up): as the sequence (P17952 whole entry) above

[12] = target: T3, UDP-N-acetylmuramoylalanine--D-glutamate ligase; experiment: Competitive inhibition of Escherichia coli MurD using D-Glu substrate by steady-state enzyme kinetics assay
[13] = target: T3, UDP-N-acetylmuramoylalanine--D-glutamate ligase; experiment: Partial un-competitive inhibition of Escherichia coli MurD using ATP substrate by steady-state enzyme kinetics assay
[14] = target: T3, UDP-N-acetylmuramoylalanine--D-glutamate ligase; experiment: Partial non-competitive inhibition of Escherichia coli MurD using UMA substrate by steady-state enzyme kinetics assay

Row | Compound | IC50 [2] [µM] | Activity [5] [%] | Activity [9] [%] | Activity [10] [%] | Activity [11] [%] | also measured
1 | COc1ccc(/N=C2\NC(=O)/C(=C\c3cc(C)n(-c4cc(C(=O)O)cc(C(=O)O)c4)c3C)S2)cc1 | 303 | – | – | – | – | IC50 [1]: 281 µM; IC50 [3]: 168 µM; IC50 [4]: 172 µM
2 | Cc1cc(/C=C2/SC(=S)NC2=O)c(C)n1-c1cc(C(=O)O)cc(C(=O)O)c1 | – | 89 | – | – | – | IC50 [3]: 95 µM; IC50 [4]: 133 µM; MIC [6]: 128 µg/mL (≈ 318 µM); MIC [7]: 256 µg/mL (≈ 636 µM); MIC [8]: > 256 µg/mL
3 | O=C1NC(=S)N(c2ccc(F)cc2)C(=O)/C1=C\c1ccc2c(c1)OCO2 | – | 81 | 97 | 102 | 108 | –
4 | Cc1cc(/C=C2/C(=O)NC(=S)N(c3cccc(Cl)c3)C2=O)c(C)n1-c1cc(C(=O)O)cc(C(=O)O)c1 | – | 78 | – | – | 80 | –
5 | Cc1cc(/C=C2/S/C(=N/c3ccc(Br)cc3)NC2=O)c(C)n1-c1cc(C(=O)O)cc(C(=O)O)c1 | 89 | – | – | – | – | IC50 [1]: 102 µM; IC50 [3]: 66 µM; IC50 [4]: 44 µM
6 | CCc1ccc(N2C(=O)NC(=O)/C(=C/c3cc(C)n(-c4cc(C(=O)O)cc(C(=O)O)c4)c3C)C2=O)cc1 | 330 | 75 | – | 81 | 74 | –
7 | CCc1ccc(N2C(=O)/C(=C\c3cc(C)n(C4CCCCC4)c3C)C(=O)NC2=S)cc1 | – | 75 | 97 | 100 | 92 | –
8 | Cc1cc(/C=C2/C(=O)NC(=S)N(c3cccc(Cl)c3Cl)C2=O)c(C)n1-c1cc(C(=O)O)cc(C(=O)O)c1 | – | 86 | – | – | 96 | –
9 | Cc1cc(/C=C2/C(=O)NC(=S)N(c3ccccc3F)C2=O)c(C)n1-c1cc(C(=O)O)cc(C(=O)O)c1 | 311 | – | – | 71 | 60 | IC50 [1]: 344 µM
10 | Cc1cc(/C=C2/S/C(=N/c3ccc(F)cc3)NC2=O)c(C)n1C | – | 67 | 76 | 78 | 82 | –
11 | CO/N=C(\C(=O)N[C@@H]1C(=O)N2C(C(=O)O)=C(COC(N)=O)CS[C@H]12)c1ccco1 [CEFUROXIME] | – | – | – | – | – | MIC [7]: 0.5 µg/mL (≈ 1.18 µM)
12 | O=C1NC(=S)N(c2ccc(Br)cc2)C(=O)/C1=C\c1ccc2c(c1)OCO2 | – | 95 | 81 | 91 | 120 | –
13 | O=C1N/C(=N\c2ccc(Br)cc2)S/C1=C/c1c[nH]c2ccccc12 | – | 75 | 90 | 102 | 87 | –
14 | Cc1ccc(/N=C2\NC(=O)/C(=C\c3cc(C)n(-c4cc(C(=O)O)cc(C(=O)O)c4)c3C)S2)cc1 | 245 | – | – | – | – | IC50 [1]: 201 µM; IC50 [3]: 170 µM; IC50 [4]: 107 µM
15 | C/N=C1/S/C(=C/c2cc(C)n(-c3cc(C(=O)O)cc(C(=O)O)c3)c2C)C(=O)N1C | – | 95 | 97 | 89 | 106 | –
16 | CCc1ccccc1N1C(=O)/C(=C\c2cc(C)n(-c3cc(C(=O)O)cc(C(=O)O)c3)c2C)C(=O)NC1=S | – | 68 | – | – | 85 | –
17 | GENTAMICIN | – | – | – | – | – | MIC [6]: 8 µg/mL
18 | Cc1cc(/C=C2/S/C(=N/c3cccc(Br)c3)NC2=O)c(C)n1C1CCCCC1 | – | 93 | 91 | 79 | 89 | –
19 | Cc1cc(/C=C2/C(=O)NC(=S)N(c3ccccc3)C2=O)c(C)n1-c1cc(C(=O)O)cc(C(=O)O)c1 | – | 84 | – | – | 75 | MIC [6]: > 256 µg/mL; MIC [7]: > 256 µg/mL; MIC [8]: > 256 µg/mL
20 | Cc1cc(/C=C2/S/C(=N/c3ccccc3)NC2=O)c(C)n1-c1cc(C(=O)O)cc(C(=O)O)c1 | 494 | – | – | – | – | IC50 [1]: 298 µM; IC50 [3]: 206 µM; IC50 [4]: 205 µM; MIC [6]: > 256 µg/mL; MIC [7]: 256 µg/mL (≈ 555 µM); MIC [8]: > 256 µg/mL
21 | O=C1NC(=S)N(c2ccc(Cl)cc2)C(=O)/C1=C\c1cc2ccccc2[nH]1 | 44 | 20 | – | 71 | 77 | –
22 | Cc1cc(/C=C2/C(=O)NC(=O)N(c3ccc(Br)cc3)C2=O)c(C)n1-c1cc(C(=O)O)cc(C(=O)O)c1 | 211 | 60 | – | 71 | 62 | –
23 | Cc1cc(/C=C2/S/C(=N/c3ccc(Cl)cc3)NC2=O)c(C)n1-c1cc(C(=O)O)cc(C(=O)O)c1 | 93 | – | – | – | – | IC50 [1]: 89 µM; IC50 [3]: 60 µM; IC50 [4]: 41 µM; Ki [12]: 21 µM; Ki [13]: 39 µM; Ki [14]: 29 µM
